Measured values reported in patent US20100189648A1, “INHIBITORS FOR DISRUPTING THE INTERACTION OF UBIQUITINATION RELATED ENZYMES AND USES THEREOF” (priority 2006, published 2010).
Converted amounts (≈) assume the structure as drawn. Read-outs that look alike come from different tables or passages of the source.

Experiments:
Type in all cases: cell-based, human
[1] = test system: Hela cells; assay: MTT survival assay, cervical cancer line (Hela cells); details: for IC50: Homo sapiens
Protocol: (§1) The effect of the above identified compounds on anti-tumor activity in human carcinoma cells was determined by the MTT survival assay. The MTT assay is a commonly used method in evaluation of cell survival, based on the ability of viable cells to convert MTT (MTT, Sigma, Cat No. 044K5307), a soluble tetrazolium salt [3-(4,5-dimethylthuazole-2-yl)-2,5 diphenyl tetrazolium bromide], into an insoluble formazan precipitate, which is quantitated by spectrophotometry following solubilization in dimethyl sulfoxide (DMSO).
(§2) In brief, different carcinoma cells were treated with negative control, various test articles at different concentration, and positive control (DDP), in 96-well tissue culture dishes. Each test article at different concentration is repeated 3 times.
(§3) Different carcinoma cells were diluted with 10% FBS and RPM1640 or MEM media to a concentration of 3-5×10^4 per ml suspension. 100 microliter of cells were incubated in each well in 96-well tissue culture dishes at 37 C. The cells were incubated at 37 C on the first day. On the second day, media supernatant was removed and replaced with media and different concentration of test articles (100 microliter in each well). Three Negative control wells and three positive control (DDP) wells were also included. The 96-well plate were incubated at 37 C for another 68 hours. After 68 hours, supernatant of each well was removed. 100 microliter of 1 mg/ml MTT diluted in PBS was injected into each well. The cells were incubated at 37 C for another 4 hours. The cells were then solubilized in 150 microliter DMSO, mixed for 10 minutes and absorbance readings were taken using Microplate reader Bio-Rad Model 550 at 570 nm. IR (cell growth inhibition rate) % was calculated as (OD570 of negative control-OD570 with test article)/OD570 of negative control. IC50 (cell 50% inhibition concentration) at 95% confidence level was calculated with Bliss method.

[2] = test system: MCF-7; assay: MTT survival assay, breast cancer cell line (MCF-7); details: for IC50: Homo sapiens
Protocol: as §1, §2, §3

[3] = test system: A459; assay: MTT survival assay, lung cancer cell line (A459); details: A459; for IC50: Homo sapiens
Protocol: as §1, §2, §3

[4] = test system: SMMC-7721; assay: MTT survival assay, liver cancer cell line (SMMC-7721); details: SMMC-7721; for IC50: Homo sapiens
Protocol: as §1, §2, §3

[5] = test system: SKOV3; assay: MTT survival assay, ovarian cancer cell line (SKOV3); details: SKOV3 (first table)
Protocol: as §1, §2, §3

[6] = test system: U251; assay: MTT survival assay, glioma cell line (brain tumor U251); details: U251 (first table)
Protocol: as §1, §2, §3

[7] = 95% confidence limits of IC50, read-out: IC50 (95% confidence level), interval
[8] = Bliss method, unit not printed (concentrations in μg/ml), read-out: IC50 (95% confidence level)

For `O=C(Nc1ccnc2[nH]ccc12)c1cc2ccccc2s1` [Mol 11], the “IR (%)” value ([1]; 0.41 μg/ml) was 0.7%, the “OD(A570 nm)” value ([1]; 0.41 μg/ml) was 0.738 ± 0.080 and the “OD(A570 nm)” value ([1]; 1.23 μg/ml) was 0.790 ± 0.037. The “IR (%)” value ([1]; 3.70 μg/ml) was 2.6%, the “OD(A570 nm)” value ([1]; 3.70 μg/ml) was 0.723 ± 0.032 and the “IR (%)” value ([1]; 11.11 μg/ml) was 12.0%. The “OD(A570 nm)” value ([1]; 11.11 μg/ml) was 0.653 ± 0.134, the “IR (%)” value ([1]; 33.33 μg/ml) was 61.9% and the “OD(A570 nm)” value ([1]; 33.33 μg/ml) was 0.283 ± 0.047. The “IR (%)” value ([1]; 100 μg/ml) was 80.5%, the “OD(A570 nm)” value ([1]; 100 μg/ml) was 0.145 ± 0.031 and the IC50 [1, 7] was 26.8 to 38.3 µg/mL (≈ 91.3 to 131 µM). The IC50 [1, 8] was 31.9 µg/mL (≈ 109 µM), the “IR (%)” value ([2]; 3.125 μg/ml) was 0% and the “OD(A570 nm)” value ([2]; 3.125 μg/ml) was 0.903 ± 0.194. For the same molecule, the “IR (%)” value ([2]; 6.25 μg/ml) was 21.2%, the “OD(A570 nm)” value ([2]; 6.25 μg/ml) was 0.711 ± 0.045 and the “IR (%)” value ([2]; 12.5 μg/ml) was 16.6%. The “OD(A570 nm)” value ([2]; 12.5 μg/ml) was 0.752 ± 0.164, the “IR (%)” value ([2]; 25 μg/ml) was 21.9% and the “OD(A570 nm)” value ([2]; 25 μg/ml) was 0.705 ± 0.076. For the same molecule, the “IR (%)” value ([2]; 50 μg/ml) was 45.7%, the “OD(A570 nm)” value ([2]; 50 μg/ml) was 0.490 ± 0.093 and the “IR (%)” value ([2]; 100 μg/ml) was 47.0%. The “OD(A570 nm)” value ([2]; 100 μg/ml) was 0.478 ± 0.079, the IC50 ([2]; MCF7, 95% confidence limits of IC50, read-out: IC50 (95% confidence level), interval) was 66.9 to 154 µg/mL (≈ 228 to 526 µM) and the IC50 ([2]; MCF7, Bliss method, unit not printed (concentrations in μg/ml), read-out: IC50 (95% confidence level)) was 94.2 µg/mL (≈ 321 µM). For the same molecule, the “IR (%)” value ([3]; 3.125 μg/ml) was 8.6%, the “OD(A570 nm)” value ([3]; 3.125 μg/ml) was 0.583 ± 0.015 and the “IR (%)” value ([3]; 6.25 μg/ml) was 26.1%. For the same molecule, the “OD(A570 nm)” value ([3]; 6.25 μg/ml) was 0.471 ± 0.001, the “IR (%)” value ([3]; 12.5 μg/ml) was 31.2% and the “OD(A570 nm)” value ([3]; 12.5 μg/ml) was 0.438 ± 0.051. The “IR (%)” value ([3]; 25 μg/ml) was 64.0%, the “OD(A570 nm)” value ([3]; 25 μg/ml) was 0.230 ± 0.040 and the “IR (%)” value ([3]; 50 μg/ml) was 76.1%. The “OD(A570 nm)” value ([3]; 50 μg/ml) was 0.152 ± 0.017, the “IR (%)” value ([3]; 100 μg/ml) was 83.1% and the “OD(A570 nm)” value ([3]; 100 μg/ml) was 0.108 ± 0.013. It also gave an IC50 [3, 7] of 19.1 to 19.8 µg/mL (≈ 65.2 to 67.4 µM), an IC50 [3, 8] of 19.4 µg/mL (≈ 66.3 µM) and an IC50 [4, 7] of 14.3 to 15.5 µg/mL (≈ 48.9 to 53 µM). For the same molecule, the IC50 [4, 8] was 14.9 µg/mL (≈ 50.9 µM), the “IR (%)” value ([4]; 3.125 μg/ml) was 37.0% and the “OD(A570 nm)” value ([4]; 3.125 μg/ml) was 0.277 ± 0.018. For the same molecule, the “IR (%)” value ([4]; 6.25 μg/ml) was 35.1%, the “OD(A570 nm)” value ([4]; 6.25 μg/ml) was 0.286 ± 0.092 and the “IR (%)” value ([4]; 12.5 μg/ml) was 53.1%. For the same molecule, the “OD(A570 nm)” value ([4]; 12.5 μg/ml) was 0.207 ± 0.007, the “IR (%)” value ([4]; 25 μg/ml) was 53.5% and the “OD(A570 nm)” value ([4]; 25 μg/ml) was 0.205 ± 0.018. The “IR (%)” value ([4]; 50 μg/ml) was 63.0%, the “OD(A570 nm)” value ([4]; 50 μg/ml) was 0.163 ± 0.009 and the “IR (%)” value ([4]; 100 μg/ml) was 68.1%. The “OD(A570 nm)” value ([4]; 100 μg/ml) was 0.141 ± 0.006, the IC50 ([5]; Homo sapiens, SK-OV-3, Bliss method, unit not printed (concentrations in μg/ml), read-out: IC50 (95% confidence level)) was 29 µg/mL (≈ 98.9 µM) and the “IR (%)” value ([5]; 3.125 μg/ml) was 0%. The “OD(A570 nm)” value ([5]; 3.125 μg/ml) was 0.753 ± 0.074, the “IR (%)” value ([5]; 6.25 μg/ml) was 0.9% and the “OD(A570 nm)” value ([5]; 6.25 μg/ml) was 0.694 ± 0.043. For the same molecule, the “IR (%)” value ([5]; 12.5 μg/ml) was 4.1%, the “OD(A570 nm)” value ([5]; 12.5 μg/ml) was 0.671 ± 0.063 and the “IR (%)” value ([5]; 25 μg/ml) was 45.0%. The “OD(A570 nm)” value ([5]; 25 μg/ml) was 0.385 ± 0.017, the “IR (%)” value ([5]; 50 μg/ml) was 55.1% and the “OD(A570 nm)” value ([5]; 50 μg/ml) was 0.314 ± 0.041. The “IR (%)” value ([5]; 100 μg/ml) was 86.0%, the “OD(A570 nm)” value ([5]; 100 μg/ml) was 0.098 ± 0.010 and the IC50 ([6]; Homo sapiens, U-251, Bliss method, unit not printed (concentrations in μg/ml), read-out: IC50 (95% confidence level)) was 4340 µg/mL (≈ 14800 µM). The “IR (%)” value ([6]; 3.125 μg/ml) was 9.1%, the “OD(A570 nm)” value ([6]; 3.125 μg/ml) was 0.797 ± 0.016 and the “IR (%)” value ([6]; 6.25 μg/ml) was 13.5%. The “OD(A570 nm)” value ([6]; 6.25 μg/ml) was 0.758 ± 0.019, the “IR (%)” value ([6]; 12.5 μg/ml) was 15.1% and the “OD(A570 nm)” value ([6]; 12.5 μg/ml) was 0.744 ± 0.045. For the same molecule, the “IR (%)” value ([6]; 25 μg/ml) was 20.5%, the “OD(A570 nm)” value ([6]; 25 μg/ml) was 0.697 ± 0.053 and the “IR (%)” value ([6]; 50 μg/ml) was 19.1%. For the same molecule, the “OD(A570 nm)” value ([6]; 50 μg/ml) was 0.709 ± 0.054, the “IR (%)” value ([6]; 100 μg/ml) was 25.8% and the “OD(A570 nm)” value ([6]; 100 μg/ml) was 0.650 ± 0.006.
